Consider 36 compounds from PMC4964800 (Bioorganic & medicinal chemistry letters, 2016).

Structures are written as SMILES.

Type in all cases: cell-based
One assay has as its system STAT3. In words: IL-6-induced STAT3 activation high content. The settings on record: for IC50: Homo sapiens, CAL-33, read-out: STAT3 IC50; for times less active (STAT3) after exchanging R-substituents of 1a and 2b: compared with 1a and 2b; for fold improvement in STAT3 potency compared to original hit 2b: vs 2b.
The subject of a further assay is STAT1. In words: IFN-γ-induced STAT1 pathway activation assay. The settings on record: read-out: STAT1 IC50.
Assay [1] has as its system pSTAT3 and STAT3 target gene Cyclin D1. In words: Western blot analysis in IL-6-stimulated Cal33 cells. The settings on record: IL-6 (50 ng/mL)-stimulated Cal33 cells. (In general: In western blotting, separated proteins are transferred to a membrane and probed.)

As usually defined, the IC50 is the concentration that gives 50% inhibition. As to `Clc1ccc(C2=Nn3c(nnc3-c3[nH]nc4c3CCC4)SC2)cc1Cl` [Compound 1a], the figures for the IC50 in the assay with STAT3 and with STAT1 were 6.8 ± 3.7 µM and more than 50 µM, respectively.

As for `Clc1ccc(C2=Nn3c(nnc3-c3cc(-c4ccccc4)n[nH]3)SC2)cc1Cl` [Compound 1b], the “times less active (STAT3) after exchanging R-substituents of 1a and 2b” value with STAT3 was 3–4 times. In the assay on STAT1, the IC50 was more than 50 µM.

As to `Clc1ccc(C2=Nn3c(nnc3-c3[nH]nc4c3CCC4)SC2)cc1` [Compound 2a], the “times less active (STAT3) after exchanging R-substituents of 1a and 2b” value in the assay with STAT3 is recorded as 3–4 times. The IC50 in the assay on STAT1 is more than 50 µM.

As for `Clc1ccc(C2=Nn3c(nnc3-c3cc(-c4ccccc4)[nH]n3)SC2)cc1` [Compound 2b], the figures for the IC50 in the assay on STAT3 and in the assay on STAT1 were 9.6 ± 7.8 µM and more than 50 µM, respectively.

For the compound `Clc1cccc(C2=Nn3c(nnc3-c3[nH]nc4c3CCC4)SC2)c1` [Compound 4a], in the assay on STAT1, the IC50 is more than 50 µM.

On to `Clc1cccc(C2=Nn3c(nnc3-c3cc(-c4ccccc4)n[nH]3)SC2)c1` [Compound 4b], for which the IC50 was found to be 5.6 ± 4 µM with STAT3 and 45.9 ± 8.3 µM with STAT1.

Take `c1ccc(C2=Nn3c(nnc3-c3[nH]nc4c3CCC4)SC2)cc1` [Compound 5a]: the figures for the IC50 in the assay with STAT3 and in the assay with STAT1 were 21.2 ± 23.5 µM and more than 50 µM, respectively.

`c1ccc(C2=Nn3c(nnc3-c3cc(-c4ccccc4)[nH]n3)SC2)cc1` [Compound 5b]: the IC50 with STAT1 is more than 50 µM.

Turning to `COc1ccc(C2=Nn3c(nnc3-c3[nH]nc4c3CCC4)SC2)cc1` [Compound 6a], in the assay with STAT1, the IC50 came to 40.6 ± 7.5 µM.

`COc1ccc(C2=Nn3c(nnc3-c3cc(-c4ccccc4)n[nH]3)SC2)cc1` [Compound 6b]: the IC50 in the assay with STAT1 is more than 50 µM.

On to `c1cc(C2=Nn3c(nnc3-c3[nH]nc4c3CCC4)SC2)ccn1` [Compound 7a], for which the IC50 in the assay with STAT1 was more than 50 µM.

As for `c1ccc(-c2cc(-c3nnc4n3N=C(c3ccncc3)CS4)[nH]n2)cc1` [Compound 7b], the IC50 in the assay on STAT1 is more than 50 µM.

Regarding `Clc1ccc(C2=Nn3c(nnc3-c3[nH]nc4c3CCC4)SC2)s1` [Compound 8a], the IC50 in the assay on STAT1 was more than 50 µM.

As for `Clc1ccc(C2=Nn3c(nnc3-c3cc(-c4ccccc4)n[nH]3)SC2)s1` [Compound 8b], the IC50 with STAT1 is more than 50 µM.

Regarding `C1=Nn2c(nnc2-c2[nH]nc3c2CCC3)SC1` [Compound 9a], in the assay on STAT1, the concentration for half-maximal inhibition (IC50) is more than 50 µM.

As to `C1=Nn2c(nnc2-c2cc(-c3ccccc3)n[nH]2)SC1` [Compound 9b], the IC50 with STAT1 was more than 50 µM.

Turning to `CC1=Nn2c(nnc2-c2[nH]nc3c2CCC3)SC1` [Compound 10a], in the assay with STAT1, the IC50 was more than 50 µM.

`CC1=Nn2c(nnc2-c2cc(-c3ccccc3)[nH]n2)SC1` [Compound 10b]: the IC50 in the assay with STAT1 is more than 50 µM.

For the compound `C1CCC(C2=Nn3c(nnc3-c3[nH]nc4c3CCC4)SC2)CC1` [Compound 11a], the IC50 in the assay on STAT1 was more than 50 µM.

Take `c1ccc(-c2cc(-c3nnc4n3N=C(C3CCCCC3)CS4)[nH]n2)cc1` [Compound 11b]: the IC50 in the assay on STAT1 was more than 50 µM.

Consider `COc1ccc(C2CSc3nnc(-c4[nH]nc5c4CCC5)n3N2)cc1` (stereo not drawn) [Compound 12], for which, in the assay with STAT3, the “activity in the STAT3 assay (in words)” value was “inactive”.

In the case of `COc1ccc(C2CSc3nnc(-c4cc(-c5ccccc5)n[nH]4)n3N2C(C)=O)cc1` (stereo not drawn) [Compound 13], in the assay on STAT3, the “activity in the STAT3 assay (in words)” value is “inactive”.

Take `Fc1ccc(-c2cc(-c3nnc4n3N=C(c3ccc(Cl)c(Cl)c3)CS4)[nH]n2)cc1` [Compound 14]: the “fold improvement in STAT3 potency over unsubstituted analog 1b” value in the assay with STAT3 (vs 1b) was ~ 4 fold.

For the compound `Clc1ccc(C2=Nn3c(nnc3-c3[nH]nc4c3CCCC4)SC2)cc1Cl` [Compound 16], in the assay on STAT3 (vs 1a), the “fold less active than cyclopentyl analog 1a” value is listed as ~ 2 fold.

Regarding `CC1Sc2nnc(-c3[nH]nc4c3CCC4)n2N=C1c1ccc(Cl)c(Cl)c1` (stereo not drawn) [Compound 17], the results for the IC50 in the assay on STAT3 and in the assay with STAT1 were 8.2 ± 2.2 µM and more than 50 µM, respectively.

Turning to `COc1ccc(C2=Nn3c(nnc3-c3[nH]nc4c3CCC4)SC2C)cc1` (stereo not drawn) [Compound 18], the IC50 in the assay with STAT3 was 9.1 µM; in the assay with STAT1, more than 50 µM.

Turning to `CC1Sc2nnc(-c3cc(-c4ccccc4)n[nH]3)n2N=C1c1ccccc1` (stereo not drawn) [Compound 19], in assay [1], the “downstream STAT3 target gene Cyclin D1 by Western blot” value is on record as “significant inhibition” and the “pSTAT3 levels by Western blot” value is recorded as “pronounced decreases”. For the same compound, in the assay on STAT3, the IC50 is 3.4 µM and the “fold improvement in STAT3 potency compared to original hit 2b” value (shortened to “fold improvement … to original hit 2b”) is 2–3 fold. In addition, the IC50 in the assay on STAT1 amounted to 15 µM.

For the compound `CC1Sc2nnc(-c3cc(-c4ccc(F)cc4)n[nH]3)n2N=C1c1ccccc1` (stereo not drawn) [Compound 20], in the assay with STAT3, the IC50 came out at 3.8 ± 0.8 µM and the “fold improvement … to original hit 2b” value is 2–3 fold. The IC50 in the assay on STAT1 was more than 30 µM.

As to `COc1ccc(C2=Nn3c(nnc3-c3cc(-c4ccc(F)cc4)n[nH]3)SC2C)cc1` (stereo not drawn) [Compound 21], in the assay on STAT3, the IC50 stood at 4.2 µM and the “fold improvement … to original hit 2b” value is reported as 2–3 fold. In addition, the IC50 in the assay with STAT1 was more than 30 µM.

`COc1ccc(C2=Nn3c(nnc3-c3cc(-c4ccc(Cl)cc4)n[nH]3)SC2C)cc1` (stereo not drawn) [Compound 22]: in assay [1], the “downstream STAT3 target gene Cyclin D1 by Western blot” value is “significant inhibition” and the “pSTAT3 levels by Western blot” value is on record as “pronounced decreases”.

For `CC(C)C1Sc2nnc(-c3[nH]nc4c3CCC4)n2N=C1c1ccc(Cl)c(Cl)c1` (stereo not drawn) [Compound 23], the IC50 was 4.4 µM with STAT3 and more than 50 µM in the assay on STAT1.

Turning to `COc1ccc(C2=Nn3c(nnc3-c3[nH]nc4c3CCC4)SC2C(C)C)cc1` (stereo not drawn) [Compound 24], the IC50 in the assay with STAT1 was more than 50 µM.

Take `CC(C)CC1Sc2nnc(-c3[nH]nc4c3CCC4)n2N=C1c1ccc(Cl)c(Cl)c1` (stereo not drawn) [Compound 25]: the IC50 is 4.1 µM with STAT3 and more than 50 µM in the assay on STAT1.

As to `COc1ccc(C2=Nn3c(nnc3-c3cc(-c4ccccc4)n[nH]3)SC2CC(C)C)cc1` (stereo not drawn) [Compound 26], the IC50 in the assay with STAT1 was more than 50 µM.

`Clc1ccc(C2=Nn3c(nnc3-c3[nH]nc4c3CCC4)SC2Cc2ccccc2)cc1Cl` (stereo not drawn) [Compound 27]: the IC50 is 7.5 µM in the assay with STAT3 and more than 50 µM in the assay on STAT1.

Turning to `CC1(C)Sc2nnc(-c3[nH]nc4c3CCC4)n2N=C1c1ccc(Cl)c(Cl)c1` [Compound 30], the IC50 is 18.6 µM in the assay with STAT3 and more than 50 µM with STAT1.
